Results taken from patent US4791059A, “Process for preparing lipase” (Suntory Limited, priority 1984, dated 1988).

Tested on: lipase
Experiment: Inhibition and activation of lipase activity by divalent metal ions, SH reagent and surface-active agents
Assay type: biochemical, Staphylococcus capitis
Description: The effects of the divalent metal ions, SH reagent and surface-active agents on the lipase activity were evaluated by measuring the residual activities after treatment. […] The lipase activity is increased 3-fold to 5-fold by the presence of Ca^2+.
The lipase activity is more than 90% inhibited by 2 mM sodium laurylsulfate (SDS), 2 mM iodine acetamide, 0.1% Tween 20, 0.1% Tween 80, and 0.1% Triton X-100.
One milliliter of olive oil is added to a test tube (.phi.25×200 mm) containing 5 ml of a reaction mixture consisting of 25 mM of a Tris-HCl buffer (pH 8.0) and 10 mM of CaCl2, the tube is stirred vigorously with a mixer, and 0.5 ml of an enzyme solution is added to the tube. The reaction is carried out during which the tube is shaken at 300 rpm on a reciprocating shaker. The reaction is stopped on the addition of 20 ml of ethanol and the fatty acids formed are titrated with 0.05 N of an aqueous sodium hydroxide solution. The control values are likewise determined by titrating the solution obtained by first adding ethanol to a reaction mixture of the composition and then adding an enzyme solution to the same. According to a proposal by Enzyme Nomenclature; recommendations (1978) of the nomenclature committee of the International Union of Biochemistry (I.U.B.), Academic Press, a unit of lipase activity is defined as that amount of lipase required to liberate 1 μmole of fatty acids per minute under reaction conditions.

Row | Compound | inhibition of lipase activity (residual activity after treatment) (10 mM) | further results
1 | Triton X-100 | – | inhibition of lipase activity (0.1%): more than 90%
2 | [Mn+2] [Mn^2+] | No inhibition | –
3 | CCCCCCCC/C=C\CCCCCCCC(=O)OCCOCC(OCCO)C1OCC(OCCO)C1OCCO (stereo not shown) [Tween 80] | – | inhibition of lipase activity (0.1%): more than 90%
4 | [Ca+2] [Ca^2+] | No inhibition | –
5 | [Fe+2] [Fe^2+] | – | inhibition of lipase activity (residual activity after treatment) (1 mM): No inhibition
6 | [Cu+2] [Cu^2+] | No inhibition | –
7 | NC(=O)CI [iodine acetamide] | – | inhibition of lipase activity (2 mM): more than 90%
8 | CCCCCCCCCCCCOS(=O)(=O)[O-].[Na+] [sodium laurylsulfate (SDS), sodium laurylsulfate] | – | inhibition of lipase activity (2 mM): more than 90%
9 | [Mg+2] [Mg^2+] | No inhibition | –
10 | [Zn+2] [Zn^2+] | No inhibition | –
